From ChEMBL document CHEMBL2384948, “Aeruginosins from a Microcystis sp. bloom material collected in Varanasi, India” (J Nat Prod, 2013)

Molecular target: Trypsin (Homo sapiens, UniProt P07477+P07478+P35030)
Assay: Inhibition of trypsin (unknown origin)
Type: protein assay

Row | IC50 | SMILES
1 | 2.8 µM | CC[C@H](C)[C@@H](NC(=O)[C@@H](O)Cc1ccc(O)c(Cl)c1)C(=O)N1[C@H](C(=O)NCCCCNC(=N)N)C[C@@H]2CC[C@@H](O)C[C@@H]21
2 | 0.5 µg/mL | N=C(N)NCCCCNC(=O)[C@@H]1C[C@@H]2CC[C@@H](O)C[C@@H]2N1C(=O)[C@H](Cc1ccccc1)NC(=O)[C@@H](O)Cc1ccc(O)cc1
3 | 4.1 µM | CC(C)C[C@@H](NC(=O)[C@H](O)Cc1ccc(O)c(Br)c1)C(=O)N1[C@H](C(=O)NCCCCNC(=N)N)C[C@@H]2CC[C@@H](O)C[C@@H]21
4 | 4.3 µM | CC(C)C[C@@H](NC(=O)[C@H](O)Cc1ccc(O)c(Cl)c1)C(=O)N1[C@H](C(=O)NCCCCNC(=N)N)C[C@@H]2CC[C@@H](O)C[C@@H]21
